{"source": "PubChem BioAssay AID1924", "about": "(Vanderbilt High Throughput Screening Facility, 2009)", "test_system": "Vesicular inhibitory amino acid transporter (Rattus norvegicus) + Acetylcholine receptor subunit alpha (Homo sapiens) + Estrogen receptor (Homo sapiens) + Glucocorticoid receptor (Homo sapiens) + Sodium channel protein type 1 subunit alpha (Rattus norvegicus) + Beta-2 adrenergic receptor (Homo sapiens) + Muscarinic acetylcholine receptor M2 (Homo sapiens) + Beta-1 adrenergic receptor (Homo sapiens) + 5-hydroxytryptamine receptor 1A (Homo sapiens) + Alpha-2A adrenergic receptor (Homo sapiens) + Muscarinic acetylcholine receptor M1 (Homo sapiens) + Interleukin-1 receptor type 1 (Mus musculus) + D(2) dopamine receptor (Homo sapiens) + Androgen receptor (Rattus norvegicus) + Gamma-aminobutyric acid receptor subunit gamma-2 (Rattus norvegicus) + Muscarinic acetylcholine receptor M3 (Homo sapiens) + D(1A) dopamine receptor (Homo sapiens) + D(4) dopamine receptor (Homo sapiens) + Glutamate receptor ionotropic, kainate 1 (Rattus norvegicus) + Sodium-dependent noradrenaline transporter (Homo sapiens) + Endothelin receptor type B (Homo sapiens) + Alpha-1D adrenergic receptor (Homo sapiens) + Endothelin-1 receptor (Homo sapiens) + Substance-P receptor (Homo sapiens) + Neuropeptide Y receptor type 1 (Homo sapiens) + Adenosine receptor A2a (Homo sapiens) + B2 bradykinin receptor (Homo sapiens) + Adenosine receptor A1 (Homo sapiens) + Sodium-dependent serotonin transporter (Homo sapiens) + Neuronal acetylcholine receptor subunit alpha-3 (Homo sapiens) + Histamine H1 receptor (Homo …", "assay": "broad ancillary panel percent inhibition – biochemical, MDS panel, selectivity assay for ROMK channel modulator project, profiling panel (AID 1924)", "conditions": "MDS Pharma lead profiling binding panel, at 10 µM, stronger effect = higher value", "data": [{"smiles": "O=[N+]([O-])c1ccc2nc(COCc3nc4ccc([N+](=O)[O-])cc4[nH]3)[nH]c2c1", "values": [{"measurement": "inhibition", "value": 75, "unit": "%"}, {"measurement": "inhibition", "setting": "measured here: Adenosine A1 human binding", "value": 14, "unit": "%"}, {"measurement": "inhibition", "setting": "measured here: Adenosine A3 human binding", "value": 21, "unit": "%"}, {"measurement": "inhibition", "setting": "measured here: Adrenergic a2A human binding", "value": 14, "unit": "%"}, {"measurement": "inhibition", "setting": "measured here: Adrenergic b2 human binding", "value": 9, "unit": "%"}, {"measurement": "inhibition", "setting": "measured here: Bradykinin B2 human binding", "value": -16, "unit": "%"}, {"measurement": "inhibition", "setting": "measured here: Calcium channel L-type BTZ rat", "value": 22, "unit": "%"}, {"measurement": "inhibition", "setting": "measured here: Calcium channel L-type DHP rat", "value": 26, "unit": "%"}, {"measurement": "inhibition", "setting": "measured here: Calcium channel N-type rat", "value": 0, "unit": "%"}, {"measurement": "inhibition", "setting": "measured here: Dopamine D1 human binding", "value": -2, "unit": "%"}, {"measurement": "inhibition", "setting": "measured here: Dopamine D2S human binding", "value": -6, "unit": "%"}, {"measurement": "inhibition", "setting": "measured here: Dopamine D3 human binding", "value": 1, "unit": "%"}, {"measurement": "inhibition", "setting": "measured here: Estrogen ER alpha human binding", "value": 1, "unit": "%"}]}]}
